The results in this text go back to PubChem BioAssay (NCI).

“And” between values parts separate entries of the source, which are not always exact repeats. Identical values can stand only once.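 A five-concentration, 48-hour dose response in 96-well plates underlies each endpoint, interpolated linearly between surrounding concentrations. GI50 marks 50% less growth. The concentration for full growth arrest is given as TGI.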

The first experiment relates to SNB-19 CNS. Description: growth of human tumour cells (NCI), 48 h.
`CCOC(=O)C1=CC(C)(C(=O)OCC)Nc2c(nc(N)[nH]c2=O)N1` (stereo not drawn) registered a TGI greater than 10 µM.

Molecule `c1ccc(C2CC(=NC3CCCCC3)Nc3ccccc3N2)cc1` (stereo not drawn) had a TGI greater than 100 µM.

Another experiment relates to LOX IMVI melanoma. Kind of experiment: growth of human tumour cells (NCI), 48 h.
`COc1cc2[nH]c(-c3ccccc3)cc(=O)c2c(OC)c1OC` registered a TGI greater than 100 µM.

In the case of `CCOP(=O)(OCC)OC1CC(n2cc(C)c(=O)n(C)c2=O)OC1CO[Si](C)(C)C(C)(C)C` (stereo not drawn), the TGI is greater than 100 µM.

Regarding `CCOC(=O)c1c(SCCN2CCOCC2)n(-c2ccccc2)c(=S)n(-c2ccccc2)c1=O`, the TGI was determined as 33.3 µM.

In turn, `COc1cc(C(O)c2ccc3c(c2)OCO3)cc(OC)c1OC` (stereo not drawn) gave a TGI greater than 100 µM.

The molecule `Cc1cc(C)nc(NS(=O)(=O)c2ccc(NC(=O)c3cccc4c(NNc5ccc(S(=O)(=O)N=C(N)N)cc5)c5ccccc5nc34)cc2)n1` showed a TGI greater than 50 µM.

Turning to `CCOC(=O)c1sc2ncnc(N)c2c1C`, the TGI was greater than 100 µM.

For the molecule `COc1cccc2c1OCC1Cc3ccccc3OC21` (stereo not drawn), the TGI turned out to be 98.3 µM.

Turning to `C=CCN1C(=O)/C(=C/c2ccc(C)cc2)N=C1SC1OC(COC(C)=O)C(OC(C)=O)C(OC(C)=O)C1OC(C)=O` (stereo not drawn), the GI50 was > 100 µM and 31.7 µM; the TGI is greater than 100 µM.

For `O=C1CS(=O)(=O)C(c2cccc(Oc3ccccc3)c2)N1c1cc(Cl)ccc1Cl` (stereo not drawn), the TGI came to 28.2 µM.

Consider `COc1ccc(OC)c2sc(N3C(=O)/C(=C/c4cccc([N+](=O)[O-])c4)N=C3c3ccccc3)nc12`, for which the TGI is 62.1 µM.

`O=[N+]([O-])c1cc(Cl)ccc1Sc1ccccc1` returned a TGI greater than 100 µM.

The molecule `CC1(C)OC2COC3([C@@H]4OC(C)(C)O[C@@H]4CO)OC(C)(C)OC3C2O1` (stereo partly drawn) came in with a TGI greater than 100 µM.

In the case of `COP(=O)(OC)C(Nc1ccc(Cc2ccc(NC(c3ccco3)P(=O)(OC)OC)cc2)cc1)c1ccco1` (stereo not drawn), the TGI was greater than 100 µM.

For the molecule `COc1ccc(C2c3cc4c(cc3OC(NCCO)C2C)OCO4)cc1` (stereo not drawn), the TGI came to 68.7 µM.

`COC(=O)[C@H](Cc1ccccc1)NC(=O)N(CCC#N)CCN(C(=O)N[C@@H](Cc1ccccc1)C(=O)OC)c1ccccc1`: the TGI turned out to be 41.3 µM.

`CN(C)CCCNC(=O)c1c(O)c2ccccc2n(C)c1=O` displayed a TGI greater than 100 µM.

Regarding `O=[N+]([O-])/C(Cl)=C(\NCCN/C(C(Cl)=C(Cl)Cl)=C(/Cl)[N+](=O)[O-])C(Cl)=C(Cl)Cl`, the TGI was found to be 37.8 µM.

As to `Cc1cc(O)c(-c2cc(O)c(C)cc2O)cc1O`, the TGI was determined as 16.6 µM.

Molecule `Cc1ccc(NC(=O)/C(Cc2nc3ccc([N+](=O)[O-])cc3[nH]c2=O)=N\NC(=O)C[n+]2ccccc2)c(C)c1` returned a TGI greater than 100 µM.

As to `CC1(C)N=C2C(=O)c3c([nH]c4ccccc34)[C@]3(C)CCC1CC23` (stereo partly drawn), the TGI is greater than 6.25 µM.

With `CCN1C(=O)C(=C/C=C/c2ccc(N(CC)CC)cc2)C(=O)N(CC)C1=S`, the TGI was greater than 100 µM.

In turn, `COc1ccc(NC(C)c2ccncc2)cc1` (stereo not drawn) registered a TGI greater than 100 µM.

Consider `O=C1C=CC(=O)C(CNc2ccc(C(=O)OCc3ccccc3)cc2)=C1`, for which the TGI was found to be 17.8 µM.

The molecule `CC1=NNC(=O)C1C1CC(c2c[nH]c3ccccc23)=NN=C1Cl` (stereo not drawn) showed a TGI greater than 100 µM.

`COc1ccc2c(c1)c(=O)c1c(NCCNCCO)ccc3c(=O)n(CCN(C)C)c(=O)n2c31` registered a TGI of 1.11 µM.

With `CCOC(=O)C1=CC(C)(C(=O)OCC)Nc2c(nc(N)[nH]c2=O)N1` (stereo not drawn), the TGI is greater than 10 µM.

Take `c1ccc(C2CC(=NC3CCCCC3)Nc3ccccc3N2)cc1` (stereo not drawn): the TGI was 55.2 µM.

The subject of a further experiment is PC-3 prostate. Kind of experiment: growth of human tumour cells (NCI), 48 h.
With `COc1cc2[nH]c(-c3ccccc3)cc(=O)c2c(OC)c1OC`, the TGI is greater than 100 µM.

`CCOP(=O)(OCC)OC1CC(n2cc(C)c(=O)n(C)c2=O)OC1CO[Si](C)(C)C(C)(C)C` (stereo not drawn) showed a TGI greater than 100 µM.

`COc1cc(C(O)c2ccc3c(c2)OCO3)cc(OC)c1OC` (stereo not drawn) had a TGI greater than 100 µM.

Molecule `Cc1cc(C)nc(NS(=O)(=O)c2ccc(NC(=O)c3cccc4c(NNc5ccc(S(=O)(=O)N=C(N)N)cc5)c5ccccc5nc34)cc2)n1` showed a TGI greater than 50 µM.

For the molecule `CCOC(=O)c1sc2ncnc(N)c2c1C`, the TGI is greater than 100 µM.

With `COc1cccc2c1OCC1Cc3ccccc3OC21` (stereo not drawn), the TGI was greater than 100 µM.

Take `C=CCN1C(=O)/C(=C/c2ccc(C)cc2)N=C1SC1OC(COC(C)=O)C(OC(C)=O)C(OC(C)=O)C1OC(C)=O` (stereo not drawn): the GI50 was > 100 µM and 34.2 µM; the TGI is greater than 100 µM.

On to `O=C1CS(=O)(=O)C(c2cccc(Oc3ccccc3)c2)N1c1cc(Cl)ccc1Cl` (stereo not drawn), for which the TGI was 32 µM.

`COc1ccc(OC)c2sc(N3C(=O)/C(=C/c4cccc([N+](=O)[O-])c4)N=C3c3ccccc3)nc12` gave a TGI greater than 100 µM.

`Cc1cccc(/C(Br)=C2/OC(=O)c3ccccc32)c1` registered a TGI greater than 100 µM.

The molecule `O=[N+]([O-])c1cc(Cl)ccc1Sc1ccccc1` yielded a TGI greater than 100 µM.

In turn, `CC1(C)OC2COC3([C@@H]4OC(C)(C)O[C@@H]4CO)OC(C)(C)OC3C2O1` (stereo partly drawn) gave a TGI greater than 100 µM.

In turn, `COP(=O)(OC)C(Nc1ccc(Cc2ccc(NC(c3ccco3)P(=O)(OC)OC)cc2)cc1)c1ccco1` (stereo not drawn) gave a TGI greater than 100 µM.

Molecule `COc1ccc(C2c3cc4c(cc3OC(NCCO)C2C)OCO4)cc1` (stereo not drawn) displayed a TGI of 66.3 µM.

`COC(=O)[C@H](Cc1ccccc1)NC(=O)N(CCC#N)CCN(C(=O)N[C@@H](Cc1ccccc1)C(=O)OC)c1ccccc1` gave a TGI greater than 100 µM.

`CN(C)CCCNC(=O)c1c(O)c2ccccc2n(C)c1=O` registered a TGI greater than 100 µM.

The molecule `O=[N+]([O-])/C(Cl)=C(\NCCN/C(C(Cl)=C(Cl)Cl)=C(/Cl)[N+](=O)[O-])C(Cl)=C(Cl)Cl` showed a TGI greater than 100 µM.

Regarding `Cc1cc(O)c(-c2cc(O)c(C)cc2O)cc1O`, the TGI was 27.6 µM.

In turn, `Cc1ccc(NC(=O)/C(Cc2nc3ccc([N+](=O)[O-])cc3[nH]c2=O)=N\NC(=O)C[n+]2ccccc2)c(C)c1` gave a TGI greater than 100 µM.

For the molecule `CC1(C)N=C2C(=O)c3c([nH]c4ccccc34)[C@]3(C)CCC1CC23` (stereo partly drawn), the TGI was greater than 6.25 µM.

`CCN1C(=O)C(=C/C=C/c2ccc(N(CC)CC)cc2)C(=O)N(CC)C1=S`: the TGI was greater than 100 µM.

Consider `COc1ccc(NC(C)c2ccncc2)cc1` (stereo not drawn), for which the TGI is greater than 100 µM.

In the case of `O=C1C=CC(=O)C(CNc2ccc(C(=O)OCc3ccccc3)cc2)=C1`, the TGI worked out at 13.4 µM.

In the case of `CC1=NNC(=O)C1C1CC(c2c[nH]c3ccccc23)=NN=C1Cl` (stereo not drawn), the TGI was greater than 100 µM.

In turn, `COc1ccc2c(c1)c(=O)c1c(NCCNCCO)ccc3c(=O)n(CCN(C)C)c(=O)n2c31` yielded a TGI of 0.624 µM.

As to `CCOC(=O)C1=CC(C)(C(=O)OCC)Nc2c(nc(N)[nH]c2=O)N1` (stereo not drawn), the TGI is greater than 10 µM.

`c1ccc(C2CC(=NC3CCCCC3)Nc3ccccc3N2)cc1` (stereo not drawn) had a TGI greater than 100 µM.

The subject of a further experiment is BT-549 breast. Description: growth of human tumour cells (NCI), 48 h.
On to `COc1cc2[nH]c(-c3ccccc3)cc(=O)c2c(OC)c1OC`, for which the TGI is greater than 100 µM.

Take `CCOP(=O)(OCC)OC1CC(n2cc(C)c(=O)n(C)c2=O)OC1CO[Si](C)(C)C(C)(C)C` (stereo not drawn): the TGI is greater than 100 µM.

In turn, `CCOC(=O)c1c(SCCN2CCOCC2)n(-c2ccccc2)c(=S)n(-c2ccccc2)c1=O` showed a TGI greater than 100 µM.

Consider `COc1cc(C(O)c2ccc3c(c2)OCO3)cc(OC)c1OC` (stereo not drawn), for which the TGI is greater than 100 µM.

Take `Cc1cc(C)nc(NS(=O)(=O)c2ccc(NC(=O)c3cccc4c(NNc5ccc(S(=O)(=O)N=C(N)N)cc5)c5ccccc5nc34)cc2)n1`: the TGI was greater than 50 µM.
